Data set [1] relates to TLR9 signaling. The data set can be described thus: Plasma cytokines after i.p. ODN 1668 in mice. The class given is in vivo, C57BL/6J mice. How it is done:
(§1) Systemic cytokine levels were measured in plasma samples obtained 1, 3, and 5 hours after intraperitoneal (i.p.) administration of 7.86 nmol (50 μg) of ODN 1668 or 67 nmol of Pam3C per mouse, using ELISA kits from Biolegend™ Inc. CPDP were dissolved in PBS and administered i.p. at the dose of 200 nmol per mouse 1 hour before administration of a TLR agonist. For survival experiments, mice were sensitized to TLR9 agonists by i.p. injection of 20 mg of D-Gal 30 minutes before administration of peptides or PBS. ODN 1668 was used at the doses of 3.93 or 7.86 nmol/mouse (25 or 50 μg/mouse) 1.5 hours after D-Gal. Animal survival was monitored for 50 hours. All agents were administered i.p. in 500 μL volume of PBS. Animals had free access to food and water during the observation period. All animal experiments were conducted in accordance with the national guidelines for the care and use of laboratory animals under a protocol that was approved by the UMB IACUC.
To test the in vivo efficacy and specificity of 9R34-ΔN, C57BL/6J mice were mock-treated or treated i.p. with a single dose of inhibitory or control peptide (200 nmol/mouse) and challenged with TLR9 agonist ODN 1668 (7.86 nmol/mouse) or TLR2/1 agonist Pam3C (67 nmol/mouse) 1 hour later. Plasma concentrations of TNFα and IL-12-p40 were measured 1, 3, and 5 hours after the challenge. Both TLR agonists increased concentrations of TNFα and IL-12-p40 in 1 hour samples from below the limit of detection to about 1.2 and about 6 ng/mL in the case of ODN 1668, and to 0.12 ng/mL and 1 ng/mL after treatment with Pam3C.
Plasma TNFα and IL-12-p40 levels following intraperitioneal administration of ODN 1668 to C57Bl/6J mice in peptide-pretreated and control mice are shown in FIG. 14A and FIG. 14B. Data shown in these figures represent the means±SEM obtained in at least three independent experiments. The statistical significance of changes in cytokine concentrations was determined by a two-way ANOVA test; *p<0.001.

Another data set relates to TLR2/1 signaling. The data set can be described thus: Plasma cytokines after i.p. Pam3C in mice. The class given is in vivo, C57BL/6J mice. To be noted: peptide 200 nmol/mouse i.p.; Pam3C 67 nmol/mouse. How it is done: as §1, with “Animals had free access to food and water during the observation period. All animal experiments were conducted in accordance with the national guidelines for the care and use of laboratory animals under a protocol that was approved by the UMB IACUC.” left out
To test the in vivo efficacy and specificity of 9R34-ΔN, C57BL/6J mice were mock-treated or treated i.p. with a single dose of inhibitory or control peptide (200 nmol/mouse) and challenged with TLR9 agonist ODN 1668 (7.86 nmol/mouse) or TLR2/1 agonist Pam3C (67 nmol/mouse) 1 hour later. Plasma concentrations of TNFα and IL-12-p40 were measured 1, 3, and 5 hours after the challenge. […]
Plasma TNFα and IL-12-p40 levels following intraperitioneal administration of ODN 1668 to C57Bl/6J mice in peptide-pretreated and control mice are shown in FIG. 14A and FIG. 14B. […] The statistical significance of changes in cytokine concentrations was determined by a two-way ANOVA test; *p<0.001.

The nature of data set [2]: Stability and solubility of peptide solutions.
A further data set has as its system TLR7 signaling. The data set can be described thus: TNFα mRNA in BMDM stimulated with R848. The class given is cell-based, mouse. The following applies: peptide 40 μM; R848 2.85 μM; 1 h. The method, then:
(§2) The cDNA obtained was amplified with gene-specific primers for mouse HPRT, TNFα, IL-10, IL-12-p40, or IL-6 and Fast SYBR Green™ master mix (Applied Biosystemsm) as previously described.
(§3) CPDPs 9R34 and 9R11 were examined for inhibition of TLR1/2, TLR4, and TLR7 signaling. BMDMs were stimulated with Pam3C, E. coli LPS, or R848 and TNFαmRNA was measured 1 hour after stimulation. Mouse BMDM were treated with 40 μM of the indicated peptides for 30 minutes prior to stimulation with ODN 1668 (1 μM), E. coli LPS (0.1 μg/mL), R848 (2.85 μM), or P3C (0.33 μM). R848 and P3C were used to specifically activate TLR7 and TLR2 signaling, respectively. TNFαmRNA expression was measured 1 h after ODN 1668 challenge and normalized to the expression of HPRT. See results in FIG. 8A, FIG. 8B, and FIG. 8C. […] The statistical significance of changes was determined by a one-way ANOVA test; *p<0.01.

Data set [3] deals with TLR9 signaling. The data set can be described thus: ODN 1668-induced cytokine secretion in BMDM supernatants (ELISA). The class given is cell-based, mouse. The following applies: 5 hour supernatants, ODN 1668 1 μM. How it is done: Mouse TNFα and IL-12-p40 concentrations were measured in supernatants using ELISA kits from Biolegend™, Inc.
BMDMs were incubated in the presence of a decoy peptide for 30 minutes prior to stimulation with ODN 1668 (1 μM). The statistical significance of changes in cytokine levels was determined by the one-way ANOVA test; *p<0.01.
A general note: In an ELISA, binding on a coated surface is turned into a signal by an enzyme label.

The next data set deals with myDDosome. The following applies: BMDM pretreated with CPDP; MyD88 IP, IRAK4 blot. The method, then: Four million BMDMs per well were plated in 6-well plates and treated with CPDP for 30 minutes prior to stimulation with ODN 1668 for 90 minutes. Cells were lysed in 600 p L of buffer containing 20 mM HEPES (pH 7.4), 150 mM NaCl, 10 mM NaF, 2 mM Na3VO4, 1 mM EDTA, 1 mM EGTA, 0.5% Triton X-100, 0.1 mM DTT, and protease inhibitor cocktail (Roche™). Cell extracts were incubated overnight with 1 μg of anti-mouse MyD88 antibody (AF3109) (R&D Systems™, followed by a 4-hour incubation with 20 μL protein G Sepharose beads (ThermoFisherm Scientific). The beads were then washed 3 times with 500 μL of lysis buffer and boiled in 60 μL of Laemmli sample buffer (Bio-Rad™). Cell extracts were electrophoresed on 10% acrylamide gel by SDS-PAGE and transferred to PVDF membrane (Bio-Rad™). Rabbit anti-MyD88 IgG was purchased from Cell Signaling™. Mouse anti-IRAK4 IgG was obtained from Abcam™. Alkaline phosphatase-conjugated secondary antibodies against mouse and rabbit IgG were purchased from Cell Signaling™. The stabilized substrate for alkaline phosphatase was from Promega™.
TLR stimulation causes formation of myDDosome, a signaling complex composed through interactions of IRAK and MyD88 death domains. To test if peptides inhibit myDDosome formation, MyD88 was immunoprecipitated from lysates of ODN-stimulated BMDM and the precipitates analyzed for IRAK4 presence. BMDM were lysed and lysates immunoprecipitated with anti-MyD88 Ab and immune complexes assessed with anti-IRAK4 Ab 3 hours after cell treatment with ODN 1668.

Another data set deals with TLR1/2 signaling. The data set can be described thus: TNFα mRNA in BMDM stimulated with Pam3C. In kind it is cell-based, mouse. The following applies: peptide 40 μM; P3C 0.33 μM; 1 h. How it is done: as §2, §3

Regarding ALRLCLEERD [Peptide 9R34-ΔN], in the data set with TLR9 signaling [1] (3-hour samples, peptide 200 nmol/mouse i.p., ODN 1668 7.86 nmol/mouse), the “decrease of plasma IL-12-p40 peak” value is “approximately 25 fold”. Besides, the “1-hour plasma TNFα peak” value in the data set with TLR9 signaling [1] (peptide 200 nmol/mouse i.p. 1 hour before ODN 1668 7.86 nmol/mouse) was “eliminated”. In addition, the “ODN 1668-induced plasma cytokine levels (TNFα, IL-12-p40)” value in the data set with TLR9 signaling [1] (peptide 200 nmol/mouse i.p., ODN 1668 7.86 nmol/mouse) was “selectively inhibited only the ODN 1668-induced cytokines”. Further, the “Pam3C-induced plasma cytokine levels (TNFα, IL-12-p40)” value with TLR2/1 signaling was “did not affect cytokine levels”. In addition, in data set [2], the “concentration up to which stock solutions were stable” value was “up to 10 mM”.
With RSFWAQLGMALTRD (Synthetic peptide 9R11), in the data set on TLR7 signaling, the “signaling induced by TLR7 agonist (TNFα mRNA)” value is recorded as “did not inhibit”. Further, in the data set with TLR9 signaling [3] (peptide 20 μM), the “secretion of IL-12-p40” value is listed as “also effective”. In addition, in the data set on TLR9 signaling [3] (peptide 40 μM), the “production/secretion of TNFα” value is “decreased the production of TNFα” and the “secretion of IL-12-p40” value is recorded as “reduced secretion”. Also, the “ODN 1668-induced myDDosome formation” value in the data set with myDDosome is listed as “prevented ODN 1668-induced myDDosome formation”. In the data set on TLR1/2 signaling, the “signaling induced by TLR1/2 agonist (TNFα mRNA)” value is reported as “did not inhibit”.

(Values after US12084521B2, “TLR9 inhibitors to suppress inflammatory response to pathogens” (University Of Maryland, Baltimore, priority 2018, dated 2024).)
